Patent publication US5621113A, “4-[(thien-2-yl)methyl]-imidazole analgesics” (priority 1996, dated 1997)
Structures can show the parent of a compound that is named as a salt. Where two headings read alike, the source gives them in different places.

How the values were obtained:
[1] = system: acetylcholine bromide-induced abdominal constriction response; assay: Mouse Acetylcholine Bromide-Induced Abdominal Constriction Assay; assay type: in vivo; conditions: for ED50 / inhibition in vivo at 30 mg/kg: Mus musculus; for ED50: 0.5 h, oral, 30 minutes before acetylcholine bromide 5.5 mg/kg i.p., dose producing 50% analgesia; for inhibition in vivo at 30 mg/kg: po
Protocol: Mouse Acetylcholine Bromide-Induced Abdominal Constriction Assay
The mouse acetylcholine bromide-induced abdominal constriction assay, as described by Collier et al. in Brit. J. Pharmacol. Chem. Ther., 32: 295-310, 1968, with minor modifications was used to assess analgesic potency of the compounds herein. The test drugs or appropriate vehicle were administered orally (p.o.) and 30 minutes later the animal received an intraperitoneal (i.p.) injection of 5.5 mg/kg acetylcholine bromide (Matheson, Coleman and Bell, East Rutherford, N.J.). The mice were then placed in groups of three into glass bell jars and observed for a ten minute observation period for the occurrence of an abdominal constriction response (defined as a wave of constriction and elongation passing caudally along the abdominal wall, accompanied by a twisting of the trunk and followed by extension of the hind limbs). The percent inhibition of this response to a nociceptive stimulus (equated to % analgesia) was calculated as follows: The % Inhibition of response, i.e., % analgesia is equal to the difference between the number of control animals response and the number of drug-treated animals response times 100 divided by the number of control animals responding.
At least 15 animals were used for control and in each of the drug treated groups. At least three doses were used to determine each dose response curve and ED50 (that dose which would produce 50% analgesia). The ED50 values and their 95% fiducial limits were determined by a computer assisted probit analysis.

[2] = molecular target: T1, Alpha2D adrenergic receptor (Rattus norvegicus, UniProt P22909); assay: Alpha2D adrenergic receptor binding assay (3H-para-aminoclonidine, rat cortex synaptic membranes); design: species or system rat (male Wistar)
T1 construct: The cortex is dissected out and homogenized in 20 volumes of HEPES sucrose; from tissue; host or cells: rat brain cortex, synaptic membrane fraction (male Wistar rats, Charles River)
T1 sequence (P22909 1-465): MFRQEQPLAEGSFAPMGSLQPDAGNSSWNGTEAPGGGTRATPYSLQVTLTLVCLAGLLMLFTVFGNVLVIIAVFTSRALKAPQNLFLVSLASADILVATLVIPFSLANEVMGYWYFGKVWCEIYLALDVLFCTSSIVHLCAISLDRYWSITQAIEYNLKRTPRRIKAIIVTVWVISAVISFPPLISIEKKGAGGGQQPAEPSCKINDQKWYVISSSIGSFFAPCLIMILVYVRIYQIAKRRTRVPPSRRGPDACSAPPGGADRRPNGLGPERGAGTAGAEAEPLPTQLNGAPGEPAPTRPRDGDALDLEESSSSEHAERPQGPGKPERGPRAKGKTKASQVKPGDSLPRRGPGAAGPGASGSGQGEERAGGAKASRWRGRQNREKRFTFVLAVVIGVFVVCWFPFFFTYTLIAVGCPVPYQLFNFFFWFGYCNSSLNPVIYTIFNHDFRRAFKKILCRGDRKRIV
Protocol: Alpha2D adrenergic receptor binding assay
Male, Wistar rats (150-250 g, VAF, Charles River, Kingston, N.Y.) are sacrificed by cervical dislocation and their brains removed and placed immediately in ice cold HEPES buffered sucrose. The cortex is dissected out and homogenized in 20 volumes of HEPES sucrose in a Teflon®-glass homogenizer. The homogenate is centrifuged at 1000 g for 10 min, and the resulting supernatant centrifuged at 42,000 g for 10 min. The resulting pellet is resuspended in 30 volumes of 3 mM potassium phosphate buffer, pH 7.5, preincubated at 25° C. for 30 min and recentrifuged. The resulting pellet is resuspended as described above and used for the receptor binding assay. Incubation is performed in test tubes containing phosphate buffer, 2.5 mM MgCl2, aliquots of the synaptic membrane fraction, the ligand ^3 H-para-aminoclonidine and test drug at 25° C. for 20 min. The incubation is terminated by filtration of the tube contents through glass fiber filter sheets. Following washing of the sheets with 10 mM HEPES buffer, the adhering radioactivity is quantified by liquid scintillation spectrometry.
Binding of the test drug to the receptor is determined by comparing the amount of radiolabeled ligand bound in control tubes without drug to the amount of radiolabeled ligand bound in the presence of the drug. Dose-response data are analyzed with LIGAND, a nonlinear curve fitting program designed specifically for the analysis of ligand binding data. This assay is described by Simmons, R. M. A., and Jones, D. J., Binding of [^3 H-]prazosin and [^3 H-]p-aminoclonidine to α-Adrenoceptors in Rat Spinal Cord, Brain Research 445:338-349, 1988.

[3] = @ 30 mpk (route not given; method: orally)
[4] = displacement of 3H-para-aminoclonidine, rat cortex membranes, 25° C., 20 min, read-out: Ki

Row | SMILES | ED50 [1] | Ki [2] | further results
1 | Cc1ccsc1Cc1c[nH]cn1.Cl [Cp-1, 4-[(3-Methylthien-2-yl)methyl]-1H-imidazole Hydrochloride] | 0.94 mg/kg | 0.45 nM | –
2 | Cc1ccsc1C(C)c1c[nH]cn1.Cl (stereo not shown) [Cp-2, 4-[1-(3-methylthien-2-yl)ethyl]-1H-imidazole hydrochloride] | 1.4 mg/kg | 2.1 nM | –
3 | Brc1ccsc1Cc1c[nH]cn1.Cl [Cp-3, 4-[(3-Bromothien-2-yl)methyl]-1H-imidazole Hydrochloride] | 1.7 mg/kg | 0.35 nM | –
4 | CC(c1c[nH]cn1)c1sccc1Br.Cl (stereo not shown) [Cp-4, 4-[1-(3-Bromothien-2-yl)-ethyl]-1H-imidazole Hydrochloride] | 2.1 mg/kg | 0.96 nM | –
5 | Cc1csc(Cc2c[nH]cn2)c1C [Cp-5, 4-[(3,4-dimethylthien-2-yl)methyl]-1H-imidazole hydrochloride] | – | 0.17 nM | inhibition in vivo at 30 mg/kg ([1]; @ 30 mpk/po): 100%
6 | Cc1csc(C(C)c2c[nH]cn2)c1C (stereo not shown) [Cp-6, 4-[-(3,4-Dimethylthien-2-yl)ethyl]-1H-imidazole Fumarate] | – | 0.75 nM | inhibition in vivo at 30 mg/kg ([1]; @ 30 mpk/po): 87%
7 | Brc1csc(Cc2c[nH]cn2)c1Br [Cp-7, 4-[-(3,4-dibromothien-2-yl)methyl]-1H-imidazole fumarate] | – | 0.43 nM | inhibition in vivo at 30 mg/kg ([1]; @ 30 mpk/po): 80%
8 | CC(c1c[nH]cn1)c1scc(Br)c1Br (stereo not shown) [Cp-8, 4-[(3,4-dibromothien-2-yl)ethyl]-1H-imidazole fumarate] | 5.7 mg/kg | 0.07 nM | –
9 | Brc1csc(Cc2c[nH]cn2)c1 [Cp-9, 4-[-(4-Bromothien-2-yl)methyl]1H-imidazole Hydrochloride] | – | 1.4 nM | inhibition in vivo at 30 mg/kg ([1]; @ 30 mpk/po): 80%
10 | CC(C)=C(c1c[nH]cn1)c1sccc1C [drawing 24, reference compound] | – | – | Mouse Abdominal Constriction % Inhibition [1, 3]: 47%; Ki [2, 4]: 335 nM
11 | CC(C)=C(c1c[nH]cn1)c1sccc1C [drawing 25, reference compound] | – | – | Mouse Abdominal Constriction % Inhibition [1, 3]: 73%; Ki [2, 4]: 1000 nM
12 | Cc1ccc(Cc2c[nH]cn2)s1 [reference compound] | – | 3.6 nM | inhibition in vivo at 30 mg/kg [1, 3]: 33%
13 | c1csc(Cc2c[nH]cn2)c1 [reference compound] | – | 8.7 nM | inhibition in vivo at 30 mg/kg [1, 3]: 60%
14 | CCC(c1c[nH]cn1)c1sccc1C (stereo not shown) [reference compound] | – | 8.3 nM | inhibition in vivo at 30 mg/kg [1, 3]: 100%
